The term melting point denotes the temperature of the solid-liquid transition.

Counter-ions that a name gives are not always drawn.

`COc1ccc(CNc2nc(CCC(=O)O)nc3sc4c(c23)CCCC4)cc1Cl` (as salt: salt) [Example 2, 3-[4-(3-chloro-4-methoxybenzylamino)-5,6,7,8-tetrahydro-[1]-benzothieno[2,3-d)pyrimidin-2-yl)propionic acid] registered a melting point of 135 °C. As for `COc1ccc(CNc2nc(-c3ccc(C(=O)O)cc3)nc3sc4ccccc4c23)cc1Cl` (as salt: salt) [Example 3, 4-[4-(3-chloro-4-methoxybenzylamino)-[1]-benzothieno[2,3-d]-pyrimidin-2-yl]benzoic acid], the melting point was in the range of 189 to 190 °C. Take `CCCc1nn(C)c2c(NCc3ccc(OC)c(Cl)c3)nc(-c3ccc(C(=O)O)cc3)nc12` (as salt: salt) [Example 3, 4-[7-(3-chloro-4-methoxybenzylamino]-methyl-3-propyl-1H-pyrazolo-[4,3-d]pyrimidin-5-yl]benzoic acid]: the melting point is 139 °C.

Take `COc1ccc(CNc2nc(CCC(=O)O)nc3sc4c(c23)CCCC4)cc1Cl` [Example 2, 3-[4-(3-chloro-4-methoxybenzylamino)-5,6,7,8-tetrahydro-[1]-benzothieno[2,3-d)pyrimidin-2-yl)propionic acid]: the melting point was 229 °C. `CCCc1nn(C)c2c(NCc3ccc(OC)c(Cl)c3)nc(CCC(=O)O)nc12` [Example 2, 3-[7-(3-chloro-4-methoxybenzylamino)-1-methyl-3-propyl-1H-pyrazolo-[4,3-d]pyrimidin-5-yl]propionic acid] displayed a melting point of 178 °C.

For the origin of these results see patent US20040063731A1, “Pharmaceutical formulation comprising pyrazolo[4,3-d]pyrimidines and endothelin receptor antagonists or thienopyrimidines and endothelin receptor antagonists” (priority 2001, published 2004).
